From US20250206761A1, “HALOINDOLE MACROCYCLIC COMPOUNDS FOR THE TREATMENT OF CANCER” (Hoffmann-La Roche Inc., priority 2022, published 2025)

Key:
SW620 (ATCC-CCL-227) = test: Cell viability assay, G12V (SW620); assay type: cell-based, human; conditions: Homo sapiens, SW-620; KRAS cell viability, SW620, 72 hrs, Cell Counting Kit-8
How it was run: (§1)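 After overnight attachment, cells received compounds (0.5% DMSO) for 72 hrs; viability was then quantified with CCK-8, reading OD450 minus OD650, and IC50 values were obtained from a 4-parameter concentration-response fit.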

[1] = system: NCI-H358 (ATCC-CRL5807) cells; test: Cell viability assay, G12C (NCI-H358); assay type: cell-based, human; conditions: Homo sapiens; KRAS cell viability, NCI-H358, 72 hrs, Cell Counting Kit-8
How it was run: as §1

KRAS G12C-BRAF complex [2] = biological target: T1, KRAS G12C-BRAF complex (Homo sapiens (Human), UniProt P01116+P62937, G12C); test: KRAS G12C-BRAF NanoBit assay; assay type: cell-based; conditions: HEK293 cells, 3 hours of incubation
T1 sequence (P01116-2 other isoform, or with tags, fused parts or gaps G12C): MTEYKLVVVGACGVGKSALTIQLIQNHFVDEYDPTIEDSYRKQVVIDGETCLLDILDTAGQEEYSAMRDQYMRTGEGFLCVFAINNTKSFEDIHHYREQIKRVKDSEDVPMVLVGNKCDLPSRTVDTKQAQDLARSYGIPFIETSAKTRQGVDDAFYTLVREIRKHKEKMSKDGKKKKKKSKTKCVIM
T1 sequence (P62937 whole entry): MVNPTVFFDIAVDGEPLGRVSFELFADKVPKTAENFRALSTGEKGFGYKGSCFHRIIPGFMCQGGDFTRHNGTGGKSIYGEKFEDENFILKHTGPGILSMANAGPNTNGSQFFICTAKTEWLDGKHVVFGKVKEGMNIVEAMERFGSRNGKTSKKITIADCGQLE
Procedure: This assay is to measure the ability of tested compounds in disruption of the KRAS G12C-BRAF complex at the cellular level, we established the NanoBit cellular assay in mammalian HEK293 (ATCC) cells.
HEK293 cells were grown and maintained using DMEM medium (Thermo Fisher Scientific) with 10% fetal bovine serum and 1% penicillin/streptomycin. Both KRAS G12C and BRAF RBD were cloned into the NanoBit vectors ([…] vectors system, Promega) with the orientations SnmBit-KRAS G12C and BRAF RBD-LgBit, respectively, and co-transfected into HEK293 cells. Cells were then selected with 100 μg/mL Hygromycin B (10687010, Thermo Fisher) and Blasticidin (5 μg/mL) for 4 weeks to get the stable cell pool.
On the day of the assay, 75 nL of compound solution was presented in a 384-well assay plate as a 16-point 3-fold dilution starting from a final concentration of 30 μM in DMSO. Then cells were seeded at 10,000 cells/25 μL/well in a 384-well plate. After 3 hours of incubation, 6 μL of volume of Nano-Glo® Live Cell Substrate (Promega) was added into each well. Monitor luminescence using ultra384 model in Envision at 20 minutes. Compounds that facilitate disruption of the KRAS G12C-BRAF RBD complex were identified as those eliciting a decrease of luminescence relative to DMSO control wells.

[3] = system: AGS (ATCC-CRL-1739) cells; test: Cell viability assay, G12D (AGS); assay type: cell-based, human; conditions: Homo sapiens, KRAS cell viability, 72 hrs, Cell Counting Kit-8
How it was run: as §1

[4] = biological target: KRAS G12D binding to BRAF (Homo sapiens (Human), UniProt P01116+P62937, G12D); test: KRAS-BRAF with CYPA (500 nM) interaction assay (TR-FRET), G12D; assay type: biochemical
Sequence of KRAS G12D binding to BRAF (P01116-2 other isoform, or with tags, fused parts or gaps G12D): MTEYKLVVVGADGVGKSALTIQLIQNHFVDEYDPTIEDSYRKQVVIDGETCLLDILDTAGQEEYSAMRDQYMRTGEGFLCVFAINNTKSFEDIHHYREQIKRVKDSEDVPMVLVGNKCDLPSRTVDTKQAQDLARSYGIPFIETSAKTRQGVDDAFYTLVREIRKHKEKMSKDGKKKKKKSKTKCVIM
Sequence of KRAS G12D binding to BRAF (P62937 whole entry): as the sequence (P62937 whole entry) above

[5] = system: phosphorylation of ERK, KRAS G12V in SW620; test: pERK inhibition assay, KRAS G12V; assay type: cell-based, human; conditions: Homo sapiens, SW-620, SW620, 4 hours
How it was run: (§2)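 ERK phosphorylation is measured after 4 h of compound exposure in attached cells, using a colorimetric immunoassay on fixed, permeabilized monolayers. IC50 is derived by 4-parameter sigmoidal fitting.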

[6] = system: phosphorylation of ERK, KRAS G12D in AGS cells; test: pERK inhibition assay, KRAS G12D; assay type: cell-based, human; conditions: Homo sapiens, 4 hours
Procedure: This assay is to measure the ability of test compounds in inhibiting the phosphorylation of ERK, the downstream signaling of KRAS G12C in NCJ-H358 cells, KRAS G12D in AGS cells, and KRAS G12V in SW620. NCJ-H358 (ATCC-CRL5807) cells, AGS (ATCC-CRL-1739) cells, SW620 (ATCC-CCL-227) cells were all grown and maintained using RPMI-1640 medium (Thermo Fisher Scientific) with 10% fetal bovine serum and 1% penicillin/streptomycin. On the day prior to compound addition, cells were plated in tissue culture-treated 96 well plates (Corning-3699) at a density of 30,000 cell/well, 20,000 cell/well, 30,000 cell/well for NCJ-H358, AGS and SW620 respectively, and allowed for attachment overnight. Diluted compounds were then added in a final concentration of 0.5% DMSO. After 4 hours of incubation, the medium was removed, 100 μL of 4% formaldehyde was added, and the assay plates were incubated at room temperature for 20 minutes. The plates were then washed once with phosphate buffered saline (PBS), and permeabilized with 100 μL of chilled methanol for 10 minutes. Non-specific antibody binding to the plates was blocked using 50 μL 1×BSA blocking buffer (Thermo-37520, 10-fold dilution by Phosphate-Buffered Saline Tween (PBST) for at least 1 hour at room temperature.
The amount of phosphor-ERK was determined using an antibody specific for phosphorylated form of ERK. Primary antibody (pERK, CST-4370, Cell Signaling Technology) was diluted 1:300 in blocking buffer, with 50 μL aliquoted to each well, and incubated overnight at 4′° C. Cells was washed five times for 5 minutes with PBST. Secondary antibody ([…] anti-rabbit IgG, CST-7074, Cell Signaling Technology) was diluted 1:1000 in blocking buffer, and 50 μL was added to each well and incubated 1-2 hrs at room temperature. Cells was washed 5 times for 5 minutes with PBST, 100 μL TMB ELISA substrate (abcam-ab171523) were added and gently shake for 20 minutes. 50 μL stop solution (abcam-ab171529) were added, and then read the signal (OD450) by EnVision.
IC50 was determined by fitting a 4-parameter sigmoidal concentration response model.

[7] = system: phosphorylation of ERK, KRAS G12C in NCJ-H358 cells; test: pERK inhibition assay, KRAS G12C; assay type: cell-based, human; conditions: Homo sapiens, 4 hours
How it was run: as §2

[8] = biological target: KRAS G12V binding to BRAF (Homo sapiens (Human), UniProt P01116+P62937, G12V); test: KRAS-BRAF with CYPA (500 nM) interaction assay (TR-FRET), G12V; assay type: biochemical
Sequence of KRAS G12V binding to BRAF (P01116-2 other isoform, or with tags, fused parts or gaps G12V): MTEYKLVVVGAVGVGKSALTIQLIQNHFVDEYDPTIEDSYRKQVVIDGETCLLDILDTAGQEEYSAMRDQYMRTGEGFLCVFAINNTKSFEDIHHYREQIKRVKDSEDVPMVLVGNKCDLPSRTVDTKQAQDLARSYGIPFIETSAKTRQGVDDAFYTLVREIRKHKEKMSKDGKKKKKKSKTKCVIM
Sequence of KRAS G12V binding to BRAF (P62937 whole entry): as the sequence (P62937 whole entry) above
How it was run: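 A TR-FRET assay measured how compound, in the presence of CYPA, disrupts binding of GMPPNP-loaded 6His-KRAS G12V to BRAF. The buffer contained 25 mM HEPES PH=7.4, 0.002% Tween20, 0.1% BSA, 100 mM NaCl, 5 mM MgCl2 and 10 μM GMPPNP. Compounds ran as a 16-point 3-fold dilution series from 10 μM for 3 hours.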

KRAS G12C-BRAF complex [9] = biological target: T1, KRAS G12C-BRAF complex; test: KRAS-BRAF with CYPA (500 nM) interaction assay (TR-FRET), G12C; assay type: biochemical

IC50 (KRAS G12C-BRAF complex [2]) [nM] | SMILES | IC50 (SW620 (ATCC-CCL-227)) [nM] | IC50 [1] [nM] | IC50 [3] [nM] | IC50 [4] [nM] | IC50 [5] [nM] | IC50 [6] [nM] | IC50 [7] [nM] | IC50 [8] [nM] | IC50 (KRAS G12C-BRAF complex [9]) [nM]
27 | CO[C@@H](C)c1ncc(N2CCN(C)CC2)cc1-c1c2c3cc(c(F)cc3n1CC(F)(F)F)-c1csc(n1)C[C@H](NC(=O)[C@@H](COC1CN(C(=O)[C@H](F)Cl)C1)C(C)C)C(=O)N1CCC[C@H](N1)C(=O)OCC(C)(C)C2 (atropisomer, axis not shown; (M)) [Example 13, (2R)-2-[[1-[(2R)-2-chloro-2-fluoro-acetyl]azetidin-3-yl]oxymethyl]-N-[(7S,13S)-24-fluoro-(20M)-20-[2-[(1S)-1-methoxyethyl]-5-(4-methylpiperazin-1-yl)-3-pyridyl]-17,17-dimethyl-8,14-dioxo-21-(2,2,2-trifluoroethyl)-15-oxa-4-thia-9,21,27,28-tetrazapentacyclo-[17.5.2.1^2,5.1^9,13.0^22,26]octacosa-1(25),2,5(28),19,22(26),23-hexaen-7-yl]-3-methyl-butanamide] | 23 | 2 | 2390 | – | – | – | – | – | –
– | CCn1c(-c2cc(N3CCN(C)CC3)cnc2[C@H](C)OC)c2c3cc(c(F)cc31)-c1csc(n1)C[C@H](NC(=O)[C@H](C(C)C)N1CC[C@]3(CCN(C(=O)[C@H](F)Cl)C3)C1=O)C(=O)N1CCC[C@H](N1)C(=O)OCC(C)(C)C2 (atropisomer, axis not shown; (M)) [Example 31, (2S)-2-[(5S)-7-[(2R)-2-chloro-2-fluoro-acetyl]-1-oxo-2,7-diazaspiro[4.4]nonan-2-yl]-N-[(7S,13S)-21-ethyl-24-fluoro-(20M)-20-[2-[(1S)-1-methoxyethyl]-5-(4-methylpiperazin-1-yl)-3-pyridyl]-17,17-dimethyl-8,14-dioxo-15-oxa-4-thia-9,21,27,28-tetrazapentacyclo[17.5.2.1^2,5.1^9,13.0^22,26]octacosa-1(25),2,5(28),19,22(26),23-hexaen-7-yl]-3-methyl-butanamide] | 44 | < 1 | 237 | > 10000 | 12 | 24 | 5 | 1980 | 44
– | CCn1c(-c2cc(N3CCN(C)CC3)cnc2[C@H](C)OC)c2c3cc(c(F)cc31)-c1csc(n1)C[C@H](NC(=O)[C@H](C(C)C)N(C)C(=O)[C@H]1CCN(C(=O)[C@H](F)Cl)C1)C(=O)N1CCC[C@H](N1)C(=O)OCC(C)(C)C2 (atropisomer, axis not shown; (M)) [Example 32, (3S)-1-[(2R)-2-chloro-2-fluoro-acetyl]-N-[(1S)-1-[[(7S,13S)-21-ethyl-24-fluoro-(20M)-20-[2-[(1S)-1-methoxyethyl]-5-(4-methylpiperazin-1-yl)-3-pyridyl]-17,17-dimethyl-8,14-dioxo-15-oxa-4-thia-9,21,27,28-tetrazapentacyclo[17.5.2.1^2,5.1^9,13.0^22,26]octacosa-1(25),2,5(28),19,22(26),23-hexaen-7-yl]carbamoyl]-2-methyl-propyl]-N-methyl-pyrrolidine-3-carboxamide] | 430 | < 1 | 792 | > 10000 | 21 | 14 | 1 | > 10000 | 56
– | CCn1c(-c2cc(N3CCN(CC(F)(F)F)CC3)cnc2[C@H](C)OC)c2c3cc(c(F)cc31)-c1csc(n1)C[C@H](NC(=O)[C@H](C(C)C)N(C)C(=O)[C@H]1CCN(C(=O)[C@H](F)Cl)C1)C(=O)N1CCC[C@H](N1)C(=O)OCC(C)(C)C2 (atropisomer, axis not shown; (M)) [Example 33, (3S)-1-[(2R)-2-chloro-2-fluoro-acetyl]-N-[(1S)-1-[[(7S,13S)-21-ethyl-24-fluoro-(20M)-20-[2-[(1S)-1-methoxyethyl]-5-[4-(2,2,2-trifluoroethyl)piperazin-1-yl]-3-pyridyl]-17,17-dimethyl-8,14-dioxo-15-oxa-4-thia-9,21,27,28-tetrazapentacyclo[17.5.2.1^2,5.1^9,13.0^22,26]octacosa-1(25),2,5(28),19,22(26),23-hexaen-7-yl]carbamoyl]-2-methyl-propyl]-N-methyl-pyrrolidine-3-carboxamide] | 39 | < 1 | 338 | > 10000 | 8 | 19 | 4 | > 10000 | 18
– | CO[C@@H](C)c1ncc(N2CCN(CC(F)(F)F)CC2)cc1-c1c2c3cc(c(F)cc3n1CC(F)(F)F)-c1csc(n1)C[C@H](NC(=O)[C@H](C(C)C)N1CCC3(CN(C(=O)[C@H](F)Cl)C3)C1=O)C(=O)N1CCC[C@H](N1)C(=O)OCC(C)(C)C2 (atropisomer, axis not shown; (M)) [Example 46, (2S)-2-[2-[(2R)-2-chloro-2-fluoro-acetyl]-5-oxo-2,6-diazaspiro[3.4]octan-6-yl]-N-[(7S,13S)-24-fluoro-(20M)-20-[2-[(1S)-1-methoxyethyl]-5-[4-(2,2,2-trifluoroethyl)piperazin-1-yl]-3-pyridyl]-17,17-dimethyl-8,14-dioxo-21-(2,2,2-trifluoroethyl)-15-oxa-4-thia-9,21,27,28-tetrazapentacyclo[17.5.2.1^2,5.1^9,13.0^22,26]octacosa-1(25),2,5(28),19,22(26),23-hexaen-7-yl]-3-methyl-butanamide] | 168 | 3 | 300 | 1060 | 627 | 299 | 9 | 1230 | 129
